Starred links: 1 amine or outer side, 2 acyl side, 3 side chain; linkers in the order of their positions; H or OH if unused. Positions of bridges follow the written chain, without caps; N, C: chain ends. Non-standard residues stand in square brackets, D forms with d. Residues, ends and D or L forms follow the SMILES beside them. Chains are numbered I, II in the order given. Actinocin(1to9) = Cc1c2oc3c(C)ccc(C(=O)[*:2])c3nc-2c(C(=O)[*:1])c(N)c1=O; NMeV = CN[C@H](C(=O)O)C(C)C; Sar = CNCC(=O)O
Target: T1, HCV NS3 helicase NS3h_1b(con1) (Hepatitis C virus genotype 1b, UniProt Q9WMX2)
T1 construct: truncated C-terminally His-tagged NS3 proteins lacking the N-terminal protease, called NS3h; His-tag (C); made in house
Experiment: MBHA screen of NCI mechanistic set library at 20 μM (percent inhibition, compound interference)
Format: biochemical
Conditions: compounds at 20 μM; for Inh. (%) (Inhibition): calculated from Equation 1
Protocol: All molecular beacon-based helicase assays (MBHAs) were performed according to known methods (Belon & Frick (2008) supra; Belon & Frick (2009) supra). […] In each flat, black 384-well plate, 56 compounds were tested, in triplicate, along with three negative controls (DMSO only), three positive controls (500 nM dT20), and two wells with no enzyme. Fluorescence was read before ATP (F0) addition and 30 minutes after ATP was added to 1 mM (F30) using a Tecan Infinite M200 fluorescence microplate reader with excitation and emission wavelengths set to 643 and 670 nm, respectively. Percent inhibition was calculated with equation 1, and compound interference in the MBHA was calculated with equation 2.
In Equations 1 and 2, Fc0 is the fluorescence of the reactions containing the test compound before adding ATP, Fc30 is the fluorescence of the test compound reaction 30 minutes after adding ATP. F(−)0 is the average of three DMSO-only negative control reactions before adding ATP and F(−)30 is the average of three DMSO-only reactions 30 minutes after adding ATP.
To identify HCV helicase inhibitors, the MBHA was first used to screen the National Cancer Institute Developmental Therapeutics Program's mechanistic set library. In total, 827 compounds (at 20 μM) were screened using a MBHA with a DNA substrate (Table 1). Compounds were ranked by their ability to inhibit HCV helicase-catalyzed DNA unwinding as calculated from Equation 1.
Compound interference in the MBHA was evaluated by comparing the fluorescence of reactions containing each compound to the fluorescence of DMSO-only negative controls before ATP was added.

[1] = MBHA with DNA substrate, assay interference calculated with Equation 2
[2] = assay interference calculated with Equation 2 (fluorescence vs DMSO-only controls before ATP)

T1 sequence (Q9WMX2 1192-1657): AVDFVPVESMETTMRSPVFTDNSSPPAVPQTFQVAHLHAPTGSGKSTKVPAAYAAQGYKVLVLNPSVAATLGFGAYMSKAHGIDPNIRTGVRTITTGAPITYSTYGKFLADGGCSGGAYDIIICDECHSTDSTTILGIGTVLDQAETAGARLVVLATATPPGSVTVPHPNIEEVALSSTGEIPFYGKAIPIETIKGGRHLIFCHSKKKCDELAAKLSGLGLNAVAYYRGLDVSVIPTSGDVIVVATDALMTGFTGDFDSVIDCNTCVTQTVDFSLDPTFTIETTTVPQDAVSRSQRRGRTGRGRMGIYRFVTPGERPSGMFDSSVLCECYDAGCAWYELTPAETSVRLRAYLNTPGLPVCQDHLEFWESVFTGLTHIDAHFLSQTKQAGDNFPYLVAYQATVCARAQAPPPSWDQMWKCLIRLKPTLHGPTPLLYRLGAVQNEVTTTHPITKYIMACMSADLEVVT

Row | SMILES | Int.* (Ratio) (Interference) [1] | Inh. (%) (Inhibition) (MBHA with DNA substrate) | Inh. (%) (Inhibition) (MBHA with a DNA substrate) | Int.* (Ratio) (Interference) [2]
1 | CCN(CC)CCNc1ccc(C)c2sc3ccccc3c(=O)c12.Cl [Compound 14574] | 0.85 | 30.3 | – | –
2 | CC1=CC(O)C(O)C2(C)C1CC1OC(=O)C(O)C3C(C)C(O)C4(O)OCC13C42 (stereo not shown) [Compound 14974] | 0.99 | 20.9 | – | –
3 | CC[C@](C)(O)C(=O)O[C@H]1C(=O)O[C@@H]2C[C@H]3C(C)=C[C@H](O)[C@@H](O)[C@]3(C)[C@H]3[C@@]4(O)OC[C@]32[C@@H]1[C@@H](C)[C@H]4O [Compound 14975] | – | – | −20.8 | 1.03
4 | O=[N+]([O-])[O-].O=[N+]([O-])[O-].O=[N+]([O-])[O-].[Ga+3] [Compound 15200] | 0.75 | 53.4 | – | –
5 | CC[C@H](C)[C@@H]1NC(=O)[C@@H](NC(=O)c2c3nc4c(C(=O)N[C@@H]5C(=O)N[C@@H](C(C)C)C(=O)N6CCC[C@H]6C(=O)N(C)CC(=O)N(C)[C@@H](C(C)C)C(=O)O[C@@H]5C)ccc(C)c4oc-3c(C)c(=O)c2N)[C@@H](C)OC(=O)[C@H](C(C)C)N(C)C(=O)CN(C)C(=O)[C@@H]2CCCN2C1=O [Compound 18268] (I: TIP[Sar][NMeV] / II: TVP[Sar][NMeV]; ester I:1-I:C, II:1-II:C; linker I:N-II:N via Actinocin(1to9)) | 0.61 | 27.6 | – | –
6 | CC(C)c1cccc(O)c(=O)c1 [Compound 18804] | 0.97 | 15.2 | – | –
7 | CC(C)c1ccc(O)c(=O)cc1 [Compound 18805] | 0.98 | 31.0 | – | –
8 | CN(C)CCCN1c2ccccc2Sc2ccc3ccccc3c21 [Compound 18891] | – | – | −4.0 | 0.89
9 | CCCCCCCCCCCCC(O)C(=O)O (stereo not shown) [Compound 18938] | 1.06 | 1.7 | – | –
10 | CCN(CC)CCOc1ccc(C(O)(Cc2ccc(OC)cc2)c2ccccc2)cc1 (stereo not shown) [Compound 19857] | – | – | 7.4 | 1.05
11 | COC(=O)C1C(O)C(C)C(O)C(C)/C=C\C=C(C)C(=O)Nc2c(C)c(OC(C)=O)c3c(c2O)C(=O)C(C)=C2OCOC(=C23)C(C)=CC(C)(O)C(O)C(C)C1O (stereo not shown) [Compound 19990] | 0.96 | 25.1 | – | –
12 | Nc1nc2c(ncn2[C@@H]2O[C@H](CO)[C@@H](O)[C@H]2O)c(=O)[nH]1 [Compound 19994] | – | – | 10.4 | 1.05
13 | CCCCOCc1cc(CN2CCN(C)CC2)c(O)c2ncccc12 [Compound 20514] | – | – | −19.2 | 1.06
14 | CCN(CCO)CCNc1ccc(C)c2sc3ccccc3c(=O)c12 [Compound 20534] | 0.96 | 15.7 | – | –
15 | Cc1cn(C2CC(O)C(CO)O2)c(=O)[nH]c1=O (stereo not shown) [Compound 21548] | 0.98 | 2.1 | – | –
16 | O=c1oc2cc(O)ccc2c2oc3cc(O)ccc3c12 [Compound 22842] | 1.10 | 1.5 | – | –
17 | CC(CN(C)C)C(=O)c1ccccc1C(=O)O (stereo not shown) [Compound 22992] | 0.86 | 25.9 | – | –
18 | CN(CCc1ccccn1)c1ccc2c(c1)C(=O)c1ccccc1-2 [Compound 24048] | 1.11 | −12.7 | – | –
19 | CN(C)CCCN1c2ccc3ccccc3c2Sc2cccc(Cl)c21 [Compound 24113] | – | – | 11.0 | 0.81
20 | CO[C@H](C(=O)[C@@H](O)[C@@H](C)O)[C@@H]1Cc2cc3cc(O[C@H]4C[C@@H](O[C@H]5C[C@@H](O)[C@H](O)[C@@H](C)O5)[C@H](O)[C@@H](C)O4)c(C)c(O)c3c(O)c2C(=O)[C@H]1O[C@H]1C[C@@H](O[C@H]2C[C@@H](O[C@H]3C[C@](C)(O)[C@H](O)[C@@H](C)O3)[C@@H](O)[C@@H](C)O2)[C@H](O)[C@@H](C)O1 [Compound 24559] | 0.91 | 36.0 | – | –
21 | COc1cc([C@@H]2c3cc4c(c(O)c3C[C@H]3COC(=O)[C@@H]32)OCO4)cc(OC)c1O [Compound 24817] | 0.99 | 15.4 | – | –

Row | SMILES | Int.* (Ratio) (Interference) [1] | Inh. (%) (Inhibition) (MBHA with DNA substrate) | Inh. (%) (Inhibition) (MBHA with a DNA substrate) | Int.* (Ratio) (Interference) [2]
22 | COc1cc(C2c3cc4c(cc3C(O)C3COC(=O)C23)OCO4)cc(OC)c1OC (stereo not shown) [Compound 24818] | 1.07 | −2.7 | – | –
23 | COc1cc([C@@H]2c3cc4c(c(O)c3C[C@H]3COC(=O)[C@@H]32)OCO4)cc(OC)c1OC [Compound 24819] | 1.12 | −0.3 | – | –
24 | CC(C)C1=CC2=CC[C@@H]3[C@](C)(CCC[C@@]3(C)C(=O)O)[C@H]2CC1 [Compound 25149] | 0.93 | −11.6 | – | –
25 | OC(CN1CCCCC1)c1ccc(/C=C/c2ccc(Cl)cc2)cc1 (stereo not shown) [Compound 26040] | 0.97 | −17.0 | – | –
26 | O=C1Nc2c(Cl)cc(Cl)cc2C1=O [Compound 26045] | 0.92 | −13.7 | – | –
27 | OCC1OC(n2cnc3c(SCc4ccccc4)ncnc32)C(O)C1O (stereo not shown) [Compound 26273] | – | – | −6.4 | 0.89
28 | Cc1c2ccc3ccccc3c2c[n+]2ccccc12.[Cl-] [Compound 28002] | 1.08 | 27.1 | – | –
29 | Cl.Nc1nc(N)c2ncn(-c3ccccc3)c2n1 [Compound 29603] | – | – | −5.0 | 0.99
30 | O=C([O][Hg][CH2]C1COC([CH2][Hg][O]C(=O)c2ccccc2)CO1)c1ccccc1 (stereo not shown) [Compound 30916] | 0.93 | 19.0 | – | –
31 | Nc1ccc2nc3ccc(=O)cc-3n(-c3ccccc3)c2c1 [Compound 31702] | 0.92 | −9.7 | – | –
32 | NC(=O)NO [Compound 32065] | 1.01 | 3.7 | – | –
33 | CC[C@H]1CN2CCc3cc(OC)c(OC)cc3[C@@H]2C[C@@H]1C[C@H]1NCCc2cc(O)c(OC)cc21 [Compound 32944] | – | – | −28.9 | 1.02
34 | CC(/C=N/N=C(N)N)=N\N=C(N)N [Compound 32946] | 1.07 | −13.6 | – | –
35 | COc1cc(/C=C/C(=O)CC(=O)/C=C/c2ccc(O)c(OC)c2)ccc1O [Compound 32982] | 0.90 | 15.0 | – | –
36 | COc1c(O[C@@H]2O[C@H](CO)[C@@H](O)[C@H](O)[C@H]2O)cc2c(c1OC)-c1ccc(OC)c(=O)cc1[C@@H](NC(C)=O)CC2 [Compound 32992] | – | – | −28.7 | 1.04
37 | Oc1ccc(-c2nc3ccccc3s2)cc1 [Compound 33004] | 1.00 | −0.9 | – | –
38 | CC(=O)Nc1ccc(-c2nc3ccccc3s2)cc1 [Compound 33006] | 0.89 | 15.9 | – | –
39 | COc1cc2c(c(OC)c1OC)-c1ccc(OC)c(=O)cc1[C@@H](NC(=O)c1ccccc1)CC2 [Compound 33410] | – | – | −28.8 | 1.16
40 | CCN1C=C/C(=C\C=C\c2cc[n+](CC)c3ccccc23)c2ccccc21.[I-] [Compound 34391] | 0.24 | 100.6 | – | –
41 | COc1c2c(c(OC)c3c1c(=O)c1ccccc1n3C)OCO2 [Compound 34757] | 0.98 | −7.4 | – | –

— patent US9464064B2, “HCV helicase inhibitors and methods of use thereof” (University of Kansas, priority 2011, dated 2016)
